Measurements: patent US12427140B2, “4-[5-[(rac)-1-[5-(3-chlorophenyl)-3-isoxazolyl]ethoxy]-4-methyl-4H-1,2,4-triazol-3-yl]pyridine for use in prevention and/or treatment of pain in an animal” (priority 2019, dated 2025)

What was measured:
[1] = cited from earlier work
[2] = Dissolution of TT001 in I.V. formulation vehicle; assay type: physicochemical; conditions: 0.1 to 10 mg/ml in 40% w/v HPβCD solution in water for injection; a couple of hours for complete dissolution
Procedure: Formulation Method for the Preparation of TT001 for I.V. Dosing, 0.1 to 10 mg/ml
The formulation method is applicable at concentrations in formulation between 0.1 and 10 mg/mL corresponding to 0.262 and 26.2 μmol/mL
Preparation of 40% w/v HPβCD solution in water for injection
Excipients Hydroxypropyl-β-cyclodextrin, Kleptose, Roquette (HPβCD) 400 mg (40% w/v)
Water for injection to 1 ml (1.13 g)
Preparation of TT001 I.V. formulations between 0.1 and 10 mg/ml
Vehicle (40% w/v HPβCD solution in water for injection) to 1 ml (1.13 g)

[3] = Adverse effect on kidneys; conditions: in vivo
[4] = test system: pain in dogs with chronic osteoarthritis; conditions: cited from earlier work

C[C@@H](Oc1nnc(-c2ccncc2)n1C)c1cc(-c2cccc(Cl)c2)on1 [TT001, 4-[5-[(1R)-1-[5-(3-Chlorophenyl)-3-isoxazolyl]ethoxy]-4-methyl-4H-1,2,4-triazol-3-yl]pyridine]
effect on TLESR/reflux ([1]; high dose of 13 mg (about 0.19 mg/kg), 2 to 3 hours after food-intake): some effect
side effects ([1]; high doses of 13 mg): Some serious side effects
effect on reflux ([1]; prior to food intake and at 1-2 hours after food intake): no significant effect
dissolution [2]: moderate
adverse effect on kidneys [3]: not shown any adverse effect on kidneys

COc1cccc(C2(O)CCCCC2CN(C)C)c1 (stereo not drawn) [Tramadol]
pain killer effect in dogs [4]: do not occur
